Like-named read-outs stand apart in the source and are kept apart here.
What was measured:
Format in all cases: cell-based
168 GPCRs [1] = target: T1, 168 GPCRs (Homo sapiens, UniProt P21554)
T1 construct: host or cells: PathHunter cell lines

168 GPCRs [2] = target: T2, 168 GPCRs (Homo sapiens, UniProt P51679)
T2 construct: host or cells: PathHunter cell lines
T2 sequence (P51679 1-360): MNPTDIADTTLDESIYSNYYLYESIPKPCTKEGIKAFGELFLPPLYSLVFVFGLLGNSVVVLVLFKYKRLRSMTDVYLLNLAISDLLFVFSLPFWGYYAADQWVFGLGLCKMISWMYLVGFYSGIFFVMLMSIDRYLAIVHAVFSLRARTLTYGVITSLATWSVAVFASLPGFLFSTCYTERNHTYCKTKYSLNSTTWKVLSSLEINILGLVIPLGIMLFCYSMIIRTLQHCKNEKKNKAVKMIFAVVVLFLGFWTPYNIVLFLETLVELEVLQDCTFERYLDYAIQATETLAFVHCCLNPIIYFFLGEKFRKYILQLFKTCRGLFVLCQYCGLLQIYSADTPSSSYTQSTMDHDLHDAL

168 GPCRs [3] = target: T3, 168 GPCRs (Homo sapiens, UniProt P30411)
T3 construct: host or cells: PathHunter cell lines
T3 sequence (P30411 1-391): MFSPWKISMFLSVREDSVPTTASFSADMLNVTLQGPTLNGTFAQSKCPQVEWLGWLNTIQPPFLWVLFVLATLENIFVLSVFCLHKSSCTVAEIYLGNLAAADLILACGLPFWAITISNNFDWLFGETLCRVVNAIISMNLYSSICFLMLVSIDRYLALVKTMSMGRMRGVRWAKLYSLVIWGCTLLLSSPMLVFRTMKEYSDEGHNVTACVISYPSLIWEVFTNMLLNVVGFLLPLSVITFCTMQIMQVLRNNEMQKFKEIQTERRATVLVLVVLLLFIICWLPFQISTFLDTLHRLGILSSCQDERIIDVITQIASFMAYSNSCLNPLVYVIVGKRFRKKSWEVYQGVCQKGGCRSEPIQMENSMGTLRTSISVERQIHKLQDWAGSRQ

168 GPCRs [4] = target: T4, 168 GPCRs (Homo sapiens, UniProt P25106)
T4 construct: host or cells: PathHunter cell lines
T4 sequence (P25106 whole entry): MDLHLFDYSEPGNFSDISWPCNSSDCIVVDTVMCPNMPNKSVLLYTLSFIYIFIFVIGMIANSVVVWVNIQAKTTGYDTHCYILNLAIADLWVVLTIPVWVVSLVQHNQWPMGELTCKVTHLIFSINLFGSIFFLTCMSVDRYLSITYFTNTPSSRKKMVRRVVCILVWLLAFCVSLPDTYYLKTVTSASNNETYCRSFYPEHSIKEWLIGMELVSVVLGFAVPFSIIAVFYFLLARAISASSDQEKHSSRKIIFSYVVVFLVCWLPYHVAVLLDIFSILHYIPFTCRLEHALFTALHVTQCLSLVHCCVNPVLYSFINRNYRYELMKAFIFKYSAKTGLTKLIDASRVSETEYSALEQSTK

168 GPCRs [5] = target: T5, 168 GPCRs (Homo sapiens, UniProt P55085)
T5 construct: host or cells: PathHunter cell lines
T5 sequence (P55085 26-397): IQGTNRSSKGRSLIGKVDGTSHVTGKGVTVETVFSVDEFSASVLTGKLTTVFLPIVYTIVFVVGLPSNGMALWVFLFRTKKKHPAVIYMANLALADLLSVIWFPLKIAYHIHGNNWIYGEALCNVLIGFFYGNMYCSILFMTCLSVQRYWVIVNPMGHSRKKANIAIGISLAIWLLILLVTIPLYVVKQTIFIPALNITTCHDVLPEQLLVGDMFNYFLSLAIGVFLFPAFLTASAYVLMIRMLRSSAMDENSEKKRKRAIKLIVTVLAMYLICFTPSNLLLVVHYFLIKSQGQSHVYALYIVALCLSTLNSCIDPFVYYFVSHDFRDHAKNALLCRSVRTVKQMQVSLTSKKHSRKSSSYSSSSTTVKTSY

168 GPCRs [6] = target: T6, 168 GPCRs (Homo sapiens, UniProt Q9HBW0)
T6 construct: host or cells: PathHunter cell lines
T6 sequence (Q9HBW0 whole entry): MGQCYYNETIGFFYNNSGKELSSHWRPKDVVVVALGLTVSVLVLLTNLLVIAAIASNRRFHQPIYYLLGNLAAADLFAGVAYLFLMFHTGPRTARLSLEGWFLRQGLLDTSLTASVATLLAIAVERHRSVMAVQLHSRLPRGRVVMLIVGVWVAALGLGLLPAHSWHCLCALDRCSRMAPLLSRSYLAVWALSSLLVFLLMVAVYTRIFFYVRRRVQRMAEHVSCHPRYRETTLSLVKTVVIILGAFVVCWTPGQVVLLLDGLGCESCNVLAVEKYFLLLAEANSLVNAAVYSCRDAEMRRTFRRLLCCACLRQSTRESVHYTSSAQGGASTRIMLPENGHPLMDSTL

168 GPCRs [7] = target: T7, 168 GPCRs (Homo sapiens, UniProt Q13324)
T7 construct: host or cells: PathHunter cell lines
T7 sequence (Q13324 1-411): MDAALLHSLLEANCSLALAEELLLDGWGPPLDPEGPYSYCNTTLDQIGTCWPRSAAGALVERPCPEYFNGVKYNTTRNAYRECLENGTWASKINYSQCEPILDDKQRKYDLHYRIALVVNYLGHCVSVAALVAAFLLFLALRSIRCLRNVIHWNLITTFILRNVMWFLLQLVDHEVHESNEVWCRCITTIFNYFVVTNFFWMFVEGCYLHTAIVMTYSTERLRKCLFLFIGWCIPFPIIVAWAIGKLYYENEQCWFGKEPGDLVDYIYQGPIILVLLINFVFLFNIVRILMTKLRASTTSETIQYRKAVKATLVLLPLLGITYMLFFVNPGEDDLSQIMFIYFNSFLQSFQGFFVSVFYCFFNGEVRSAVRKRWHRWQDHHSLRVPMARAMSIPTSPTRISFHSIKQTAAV

T1 sequence (P21554 whole entry): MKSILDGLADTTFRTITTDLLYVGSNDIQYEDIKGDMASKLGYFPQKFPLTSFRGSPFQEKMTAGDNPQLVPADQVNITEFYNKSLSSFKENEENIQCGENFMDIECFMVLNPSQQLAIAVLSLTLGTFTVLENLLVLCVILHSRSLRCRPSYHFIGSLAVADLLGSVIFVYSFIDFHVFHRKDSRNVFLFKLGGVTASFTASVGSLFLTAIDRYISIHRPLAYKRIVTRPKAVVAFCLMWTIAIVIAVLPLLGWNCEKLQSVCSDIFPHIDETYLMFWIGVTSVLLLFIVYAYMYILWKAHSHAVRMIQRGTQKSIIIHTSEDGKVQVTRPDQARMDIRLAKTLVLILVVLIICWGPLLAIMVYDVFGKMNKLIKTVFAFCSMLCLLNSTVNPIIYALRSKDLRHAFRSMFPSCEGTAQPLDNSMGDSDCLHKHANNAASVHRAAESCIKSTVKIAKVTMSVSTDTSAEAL

Compound | % Agonist Activity (168 GPCRs [1]; CNR1, 1 uM) | % Antagonist Activity (168 GPCRs [1]; CNR1, 1 uM) | % Agonist Activity (168 GPCRs [1]; CNR1, 10 uM) | % Antagonist Activity (168 GPCRs [1]; CNR1, 10 uM) | % Agonist Activity (168 GPCRs [2]; CCR4, 1 uM) | % Antagonist Activity (168 GPCRs [2]; CCR4, 1 uM) | % Agonist Activity (168 GPCRs [2]; CCR4, 10 uM) | % Antagonist Activity (168 GPCRs [2]; CCR4, 10 uM) | % Agonist Activity (168 GPCRs [3]; BDKRB2, 1 uM) | % Antagonist Activity (168 GPCRs [3]; BDKRB2, 1 uM) | % Agonist Activity (168 GPCRs [3]; BDKRB2, 10 uM) | % Antagonist Activity (168 GPCRs [3]; BDKRB2, 10 uM) | % Agonist Activity (168 GPCRs [4]; CXCR7, 1 uM) | % Antagonist Activity (168 GPCRs [4]; CXCR7, 1 uM) | % Agonist Activity (168 GPCRs [4]; CXCR7, 10 uM) | % Antagonist Activity (168 GPCRs [4]; CXCR7, 10 uM) | % Agonist Activity (168 GPCRs [5]; F2RL1, 1 uM) | % Antagonist Activity (168 GPCRs [5]; F2RL1, 1 uM) | % Agonist Activity (168 GPCRs [5]; F2RL1, 10 uM) | % Antagonist Activity (168 GPCRs [5]; F2RL1, 10 uM) | other results
CNC(C)Cc1ccc2c(c1)OCO2 (centres unmarked) [MDMA, 3,4-Methylenedioxy methamphetamine, reference compound] | -0.5% | 7.8% | 0.1% | 11.2% | 0.1% | 7.7% | 0.1% | 13% | 0.3% | -6.6% | 0.1% | -5.6% | -1.3% | 5.3% | 0.5% | 8% | 16.4% | 9.6% | 1.8% | 10.9% | % Agonist Activity (168 GPCRs [6]; EDG4, 1 uM): 1.5%; % Antagonist Activity (168 GPCRs [6]; EDG4, 1 uM): 7.5%; % Agonist Activity (168 GPCRs [6]; EDG4, 10 uM): 2.2%; % Antagonist Activity (168 GPCRs [6]; EDG4, 10 uM): 10.2%; % Agonist Activity (168 GPCRs [7]; CRHR2, 1 uM): -0.2%; % Antagonist Activity (168 GPCRs [7]; CRHR2, 1 uM): 4.3%; % Agonist Activity (168 GPCRs [7]; CRHR2, 10 uM): -0.1%; % Antagonist Activity (168 GPCRs [7]; CRHR2, 10 uM): 5.7%
CNC(C)C(=O)c1ccc2c(c1)OCO2 (centres unmarked) [methylone] | -0.4% | -3.5% | -2.7% | -17.1% | -0.5% | 10% | -1.4% | 9.5% | -3.6% | 7.3% | -2.9% | -2.6% | -1.3% | 14.1% | -0.8% | 7.3% | -0.6% | -26.8% | 3.8% | -16.2% | % Agonist Activity (168 GPCRs [6]; EDG4, 1 uM): -2.2%; % Antagonist Activity (168 GPCRs [6]; EDG4, 1 uM): -10.2%; % Agonist Activity (168 GPCRs [6]; EDG4, 10 uM): -2.1%; % Antagonist Activity (168 GPCRs [6]; EDG4, 10 uM): -21%; % Agonist Activity (168 GPCRs [7]; CRHR2, 1 uM): 0.9%; % Antagonist Activity (168 GPCRs [7]; CRHR2, 1 uM): -2%; % Agonist Activity (168 GPCRs [7]; CRHR2, 10 uM): 0.9%; % Antagonist Activity (168 GPCRs [7]; CRHR2, 10 uM): -0.3%
